Data taken from patent US20260007609A1, “METHOD FOR PRODUCING EXTRACELLULAR VESICLES CONTAINING BIOACTIVE SUBSTANCE” (The University of Tokyo, priority 2022, published 2026).
Entries after “also recorded” stand apart in the source; their conditions may differ.

Experiments:
Format in all cases: cell-based
[1] = tested on: human mesenchymal stem cells; experiment: Immunoblotting of extracellular vesicle fraction from culture supernatant of treated human mesenchymal stem cells; settings: 40 μM, 24 hours, compared to DMSO
Method: (§1) CID1067700 (#SML0545-5MG) was purchased from Sigma-Aldrich, was solubilized at 40 mM in DMSO, and was added to cells to a final concentration of 40 μM, followed by performing culture for 24 hours. GW4869 (#13127) was purchased from Cayman Chemical, was solubilized at 5 mM in DMSO, and was added to cells to a final concentration of 1.25 μM, followed by performing culture for 24 hours. TAS116 (#HY-15785) was purchased from MedChemExpress, was solubilized at 1 mM in DMSO and was added to cells to a final concentration of 0.5 μM, followed by performing culture for 48 hours.
(§2) Human mesenchymal stem cells were plated on three 10-cm cell culture dishes at a density of 5,000 to 6,000 cells/cm^2. Six days after initiation of the culture, per dish, the medium was replaced with the EV Production Basal Medium (FUJIFILM-Wako, #053-09451 and #298-84001), to which 10 mL of supplements had been added (wherein a new medium to be replaced comprised an additive compound, as appropriate). After 24 hours of culture under conditions of 5% CO2 and 37° C., the medium was recovered, and was then centrifuged at 2,000×g for 30 minutes at 4° C. to remove the cell debris. Using a Millipore Amicon Ultra 30,000 MWCO filter (Pall, #MAP030C37), the resultant was centrifuged at 4,000×g for 60 minutes at 4° C., so that it was condensed to 1 ml. To the condensed culture supernatant, 500 μL of Total Exosome Isolation Reagent (Invitrogen, #4478359) was added, and the obtained mixture was then incubated overnight, while mixing it by inverting. The solution that had been mixed overnight was centrifuged at 10,000×g for at least 1 hour, and the extracellular vesicles were harvested as a precipitate, which was then resuspended in 30 μL of PBS. The obtained extracellular vesicles were preserved at 4° C. and were then used in experiments within 1 week.
Immunoblotting was performed according to the previous report (Yin et al., Neuron 70, 310-325, 2011). […] The bands were detected using an ImageQuant LAS 4000 mini system (GE Healthcare Life Sciences, USA) and were then quantified using ImageJ software. […]

[2] = tested on: human mesenchymal stem cells; experiment: Nanoparticle tracking analysis (NTA) of culture supernatant of human mesenchymal stem cells
Method: as §2
The above-described culture supernatant was diluted with PBS, and was then analyzed using Zetaview Nanoparticle Tracking Analysis Instrument (Particle Metrix, Germany). The collected data were analyzed and diagrammatized using Prism software (Graphpad, ver. 7 and 9.3.1).
First, human mesenchymal stem cells were cultured for 24 hours in a basic medium for EV production (FUJIFILM-Wako) supplemented with supplements in the presence or absence of CID1067700, and NTA was performed using the culture supernatant after removing impurities by centrifugation (FIG. 3). Using ZetaView system capable of counting extracellular vesicles with a large particle diameter such as approximately 1 μm, the measurement was performed at the “highest” mode. […]

[3] = tested on: human mesenchymal stem cells; experiment: Transmission electron microscopy of hMSC-EV pellets; settings: TEM histogram of particle sizes larger than 100 nm, vs DMSO
Method: Observation by transmission electron microscopy (TEM) was performed according to previously reported standard methods (Nonaka et al., Cell 95, 829-837, 1998; Takei et al., The Journal of cell biology 131, 1789-1800, 1995). A precipitate of extracellular vesicles was fixed in Half Kalnovsky fixative at 37° C. for 10 min and then at 4° C. overnight, followed by post-fixation with 1% OsO4 (in 0.1 M cacodylate buffer (pH 7.4)) on ice for 1.5 hours. Thereafter, the sample was subjected to electron staining with 1% uranyl acetate for 1 hour, and was then dehydrated using a graded ethanol series. Finally, the dehydrated extracellular vesicle sample was embedded in Quetol-812 (Nisshin EM), was then cut into ultrathin sections, was then electron-stained with uranyl acetate and lead citrate, and was then observed using a JEM2000 microscope at 100 keV, or using a JEM-1400Flash microscope at 80 keV. Next, the extracellular vesicle pellets were observed using TEM (FIG. 4). In addition to conventionally known small (approximately 100 nm in diameter) exosome-like particles, particles with a low electron density (bright) and a diameter of larger than 800 nm were contained in the extracellular vesicle fraction derived from human mesenchymal stem cells treated with CID1067700, and the particles tended to be surrounded with a lipid double layer (FIGS. 4A and 4B).

[4] = tested on: ShhN-EGFP transduced NIH3T3 fibroblasts; experiment: In vitro extracellular vesicle release imaging (Shh-EV tracking)
Method: as §1
In order to monitor the Brownian motion of Shh extracellular particles, NIH3T3 cells were plated at 1×10^4 cells/well onto an 8-well LabTek II Chamber #1.5 German Coverglass System pre-coated with poly-L-lysine. On the 3rd day of the culture, an adenoviral Shh-N-EGFP expression vector was introduced into the NIH3T3 cells. […] Twenty-four hours after the medium replacement, time-lapse imaging was performed using a spinning disc microscope (Yokogawa/ZEISS) according to the previous report (Tanaka et al., Neuron 90, 1215-1229, 2016) under conditions of 5% CO2 and 37° C. at intervals of 5 seconds. Shh extracellular vesicles with Brownian motion were identified using Imaris 8 software (Bitplane) and were then quantified.
Extracellular vesicles with a large particle diameter, which contain Shh, were visualized by live cell imaging in ShhN-EGFP transduced NIH3T3 fibroblasts treated with CID1067700 (FIG. 5).
These particles were automatically tracked and were identified as extracellular vesicles released from cells under drug (CID1067700, GW4869, or TSA116) addition conditions (FIGS. 5B to 5I). […] However, this increase in the released amount of Shh-EVs due to the CID1067700 treatment disappeared, when the cells were treated with […] TSA116 (Hsp90 inhibitor) for 48 hours or with 1.25 μM GW4869 (nSMase2 inhibitor) for 24 hours (FIG. 5J).

NIH3T3 cells [5] = experiment: Immunostaining of ceramide
Method: (§3) As for light microscopic observation, cells were plated on a 35-mm glass-bottomed dish (Matsunami, Japan, #D11130H) that had been pre-coated with poly-L-lysine (1:1,000, Sigma, #P4707) for 1 hour. Immunofluorescence labelling was performed using the antibodies described above. Briefly, cells were incubated with the primary antibody overnight at 4° C., and with the secondary antibody for 1 hour, followed by washing with PBS three times for 5 minutes for each washing. Thereafter, as mentioned above, using a spinning disc confocal microscope (Yokogawa/ZEISS) or an LSM780 confocal microscope equipped with Airyscan, the cells were observed. Three dimensional reconstruction of the cells was performed using Imaris 8 software (Bitplane).
In order to investigate whether nSMase2 activity is influenced by the CID1067700 treatment, NIH3T3 cells were treated with CID1067700 and/or GW4869, and immunostaining of ceramide was then performed (FIG. 6).

NIH3T3 cells [6] = experiment: Fluorescence microscopy of extracellular structures containing Shh and Hsp90; settings: 40 μM, 24 hours, vs DMSO
Method: as §3
The morphological characteristics of Shh-EVs mediated by Hsp90 secreted from CID1067700-treated cells were observed. Both Shh-tagRFP and Hsp90-EGFP were transduced into NIH3T3 cells, and the effects obtained by treating the cells with CID1067700 for 24 hours were compared. The cells were fixed the cells and were then photographed by z-stacks, and a three-dimensional model was then constructed. […] Since these structures were observed after the medium was removed and the cells were fixed, they are thought to interact with the cells as intermediate structures in the process of extracellular vesicle release. […]

[7] = culture supernatant, 24 hours treatment, n=4

## CC1(C)Cc2c(sc(NC(=S)NC(=O)c3ccccc3)c2C(=O)O)CO1 [CID1067700, 2-(benzoylcarbamothioylamino)-5,5-dimethyl-4,7-dihydrothieno[2,3-c]pyran-3-carboxylic acid]
[1]
  amount of Shh in the extracellular vesicles released from the cells: significantly elevated
  amount of the general exosome marker Hsp90 in extracellular vesicles: largely unaltered
  amount of the general exosome marker TSG101 in extracellular vesicles: largely unaltered
[2]; [7]
  extracellular vesicles with a diameter of 100 to 800 nm per ml: 3.2±1.9×10^8 particles/ml
  extracellular vesicles with a diameter of larger than 800 nm: 6.6±2.2×10^7 particles/ml
[2]; result in words, vs DMSO alone
  number of extracellular vesicles with a particle diameter of greater than 800 nm: significantly increased
[3]
  number of large-size extracellular vesicles: significantly increased
[4]; 24 hours of treatment, compared to control (DMSO treatment)
  number of Shh-EVs: significantly increased
NIH3T3 cells [5]; 24 hours of treatment (40 μM), compared to DMSO alone
  expression level of ceramide in the cytoplasm: significantly increased
NIH3T3 cells [6]
  cells with extracellular structures containing Hsp90 and Shh: significantly increased

## O=C(/C=C/c1ccc(/C=C/C(=O)Nc2ccc(C3=NCCN3)cc2)cc1)Nc1ccc(C2=NCCN2)cc1 [GW4869]
[4]; co-treatment with 1.25 μM GW4869 for 24 hours
  increase in the released amount of Shh-EVs due to the CID1067700 treatment: disappeared
NIH3T3 cells [5]; simultaneous treatment with GW4869 (2.5 μM), 24 hours
  increase in the expression level of ceramide caused by CID1067700: significantly suppressed; also recorded: offset

## CCc1cc(C(N)=O)ccc1-n1nc(C(C)C)c2c(-n3cnc(-c4cnn(C)c4)c3)ccnc21 [TSA116]
[4]; co-treatment with 5 μM TSA116 for 48 hours
  increase in the released amount of Shh-EVs due to the CID1067700 treatment: disappeared
